Values of other authors in patent US9107837B2, “Sustained release formulation of naltrexone” (Orexigen Therapeutics, Inc., priority 2006, dated 2015).

Settings: open label, approximately 570 individuals with alcoholism

SMILES: O=C1CC[C@@]2(O)[C@H]3Cc4ccc(O)c5c4[C@@]2(CCN3CC2CC2)[C@H]1O5 [naltrexone, 17-(cyclopropylmethyl)-4,5α-epoxy-3,14-dihydroxymorphinan-6-one]
- New-onset adverse reaction: anxiety: 2%
- New-onset adverse reaction: dizziness: 4%
- New-onset adverse reaction: fatigue: 4%
- New-onset adverse reaction: headache: 7%
- New-onset adverse reaction: insomnia: 3%
- New-onset adverse reaction: nausea: 10%
- New-onset adverse reaction: nervousness: 4%
- New-onset adverse reaction: somnolence: 2%
- New-onset adverse reaction: vomiting: 3%
